# Values joined by “and” are separate entries in the source; they are usually repeats but may differ in a detail not shown here. Equal values may be shown once.
# Test system: conscious telemetered beagle dogs
# Assay: Left-ventricular hemodynamic, mechanical and timing indices by radio-telemetry before and during IV OM or vehicle, on repeated oral IVA or placebo
# Type: in vivo, beagle dog
# Method: Healthy male beagle dogs (n=7) instrumented with radio-telemetry units providing continuous single-lead electrocardiogram (ECG), as well as systemic (arterial, AoP) and left-ventricular (LVP) pressure signals were used for this study. Following sling acclimation, the animals were assigned to receive repeated oral (via gavage) treatments with either Ivabradine (IVA, 5 mg/kg bid) or a volume-matched placebo-control (sterile water, CTRL) for 5 days, administered at a dose volume of 10 mL/kg, in a cross over design.
# The animals were sling-restrained and were subjected to acute intravenous administration of either sterile water (VEH, on Days 4 and 11 of dosing) or Omecamtiv Mecarbil (OM, on Days 5 and 12 of dosing). OM treatments were performed over a 3-hour infusion duration, following a dose-escalation design targeting plasma concentrations of 600 and 1000 ng/mL (each over 90 minutes, with a 30 minute loading infusion followed by a 60 minute maintenance infusion) for a cumulative dose of 5.293 mg/kg (as shown in Table A below). The IV vehicle treatments were time- and volume-matched.
# Telemetered data were collected continuously for at least 90 minutes prior to and during dosing, as well as for at least 20 hours post-dose. The LVP and ECG signals were digitized at a sampling rate of at least 1000 Hz. The data were analyzed for heart rate (HR) and left-ventricular hemodynamic/mechanical indices that were obtained from the pressure waveform, including mean systolic (MSP) and end-diastolic (filling, EDP) pressures, the peak rates of pressure change during systole/diastole (dP/dtmax/min), as well as the time-constant of relaxation (tau) and a contractility index (CI: dP/dtmax normalized by the pressure at dP/dtmax). The data were also analyzed for systolic and diastolic intervals, including the estimated durations of the systolic ejection (SET), contraction (CT), active relaxation (RT) and filling intervals (FT), as well as the systolic-to-diastolic interval ratio (S/D: SET/RT+FT), which were derived from the left-ventricular pressure waveform.
# The left-ventricular indices were evaluated only in the sling-restrained animals before and during IV treatment with OM or vehicle. Cardiovascular responses at each dose level were monitored for up to 90 minutes, i.e., over 3 hours total (during IV dosing of VEH and OM on Days 4, 5, 11, and 12 in the dose administration paradigm). Overall, in-sling cardiovascular data are reported at the following pre-determined/targeted time points: prior to dosing (i.e., at baseline, PRE) and approximately at the end of each infusion period (i.e., up to 4 time points during dosing, D1 to D4). Signals were analyzed continuously in 5-minute epochs, with pre-administration (i.e., PRE) values representing the overall mean over at least 5-epochs (i.e., 25 minutes) taken immediately prior to the onset of dosing, while during-dosing values reflect 5-minute averages (i.e., 1 epoch) taken prior to the (estimated) termination of each infusion. Data are presented as both means with standard deviations in summarizing tables/figure; beat-to-beat plots against heart rate are part of the study file.
# [1] = D1, end of 30-min loading infusion, target OM 600 ng/mL
# [2] = D2, end of 60-min maintenance infusion, target OM 600 ng/mL
# [3] = D3, end of 30-min loading infusion, target OM 1000 ng/mL
# [4] = D4, end of 60-min maintenance infusion, target OM 1000 ng/mL
# [5] = PRE, before IV dosing (baseline)
smiles,measurement,setting,value
"COC(=O)N1CCN(Cc2cccc(NC(=O)Nc3ccc(C)nc3)c2F)CC1 [OM, methyl 4-(2-fluoro-3-(3-(6-methylpyridin-3-yl)ureido)benzyl)piperazine-1-carboxylate]",CT % vs. PRE,[1],−3%
same,CT (contraction time),[1],65.9 ms
same,EDP % vs. PRE,[1],−24%
same,EDP (left-ventricular end-diastolic pressure),[1],9.8 mmHg
same,FT % vs. PRE,[1],23%
same,FT (filling time),[1],425 ms
same,HR % vs. PRE,[1],−14%
same,HR (heart rate),[1],86 bpm
same,MSP % vs. PRE,[1],−2%
same,MSP (left-ventricular mean systolic pressure),[1],127 mmHg
same,RT % vs. PRE,[1],13%
same,RT (relaxation time),[1],104 ms
same,S/D % vs. PRE,[1],18%
same,"S/D (systolic to diastolic ratio, SET/RT + FT)",[1],0.41
same,SET % vs. PRE,[1],33%
same,SET (systolic ejection time),[1],207 ms
same,Tau % vs. PRE,[1],19 ± 3%
same,Tau (left-ventricular relaxation time-constant),[1],36.7 ± 3.6 ms
same,Vmax % vs. PRE,[1],3 ± 1%
same,Vmax (estimated maximal velocity of myocardial contractile-element shortening),[1],36.0 ± 1.7 s⁻¹
same,dP/dtmax % vs. PRE,[1],−6%
same,dP/dtmax (peak rate of LV pressure change during systole),[1],"2,243 mmHg/s"
same,dP/dtmin % vs. PRE,[1],−12%
same,dP/dtmin (peak rate of LV pressure change during diastole),[1],"−1,910 mmHg/s"
same,CT % vs. PRE,[2],−2%
same,CT (contraction time),[2],66.7 ms
same,EDP % vs. PRE,[2],−33%
same,EDP (left-ventricular end-diastolic pressure),[2],8.5 mmHg
same,FT % vs. PRE,[2],2%
same,FT (filling time),[2],321 ms
same,HR % vs. PRE,[2],0%
same,HR (heart rate),[2],99 bpm
same,MSP % vs. PRE,[2],0%
same,MSP (left-ventricular mean systolic pressure),[2],130 mmHg
same,RT % vs. PRE,[2],20%
same,RT (relaxation time),[2],110 ms
same,"S/D (systolic to diastolic ratio, SET/RT + FT)",[2],0.5
same,SET (systolic ejection time),[2],214 ms
same,Tau % vs. PRE,[2],33 ± 5%
same,Tau (left-ventricular relaxation time-constant),[2],41.1 ± 4.7 ms
same,Vmax % vs. PRE,[2],7 ± 2%
same,Vmax (estimated maximal velocity of myocardial contractile-element shortening),[2],37.2 ± 1.6 s⁻¹
same,dP/dtmax % vs. PRE,[2],−1±4% and −1%
same,dP/dtmax (peak rate of LV pressure change during systole),[2],"2,356 mmHg/s"
same,dP/dtmin % vs. PRE,[2],−19%
same,dP/dtmin (peak rate of LV pressure change during diastole),[2],"−1,759 mmHg/s"
same,CT % vs. PRE,[3],−1%
same,CT (contraction time),[3],67.0 ms
same,EDP % vs. PRE,[3],−13%
same,EDP (left-ventricular end-diastolic pressure),[3],10.8 mmHg
same,FT % vs. PRE,[3],−27%
same,FT (filling time),[3],251 ms
same,HR % vs. PRE,[3],11%
same,HR (heart rate),[3],112 bpm
same,MSP % vs. PRE,[3],0%
same,MSP (left-ventricular mean systolic pressure),[3],130 mmHg
same,RT % vs. PRE,[3],24%
same,RT (relaxation time),[3],114 ms
same,S/D % vs. PRE,[3],73%
same,"S/D (systolic to diastolic ratio, SET/RT + FT)",[3],0.60
same,SET % vs. PRE,[3],34%
same,SET (systolic ejection time),[3],208 ms
same,Tau % vs. PRE,[3],53 ± 7%
same,Tau (left-ventricular relaxation time-constant),[3],47.6 ± 6.5 ms
same,Vmax % vs. PRE,[3],2 ± 2%
same,Vmax (estimated maximal velocity of myocardial contractile-element shortening),[3],35.6 ± 2.0 s⁻¹
same,dP/dtmax % vs. PRE,[3],−3%
same,dP/dtmax (peak rate of LV pressure change during systole),[3],"2,319 mmHg/s"
same,dP/dtmin % vs. PRE,[3],−26%
same,dP/dtmin (peak rate of LV pressure change during diastole),[3],"−1,608 mmHg/s"
same,CT % vs. PRE,[4],5%
same,CT (contraction time),[4],71.0 ms
same,EDP % vs. PRE,[4],46%
same,EDP (left-ventricular end-diastolic pressure),[4],17.8 mmHg
same,FT % vs. PRE,[4],−71%
same,FT (filling time),[4],85 ms
same,HR (heart rate),[4],162 bpm
same,MSP % vs. PRE,[4],−15%
same,MSP (left-ventricular mean systolic pressure),[4],111 mmHg
same,RT % vs. PRE,[4],1%
same,RT (relaxation time),[4],93 ms
same,"S/D (systolic to diastolic ratio, SET/RT + FT)",[4],1.06
same,SET % vs. PRE,[4],5%
same,SET (systolic ejection time),[4],162 ms
same,Tau (left-ventricular relaxation time-constant),[4],54.7 ± 9.7 ms
same,Vmax % vs. PRE,[4],−19±8%
same,Vmax (estimated maximal velocity of myocardial contractile-element shortening),[4],28.4 ± 3.4 s⁻¹
same,dP/dtmax % vs. PRE,[4],−23%
same,dP/dtmax (peak rate of LV pressure change during systole),[4],"1,844 mmHg/s"
same,dP/dtmin % vs. PRE,[4],−41%
same,dP/dtmin (peak rate of LV pressure change during diastole),[4],"−1,288 mmHg/s"
same,CT (contraction time),[5],67.9 ± 0.7 ms
same,EDP (left-ventricular end-diastolic pressure),[5],12.3 mmHg
same,FT (filling time),[5],370 ± 50 ms
same,HR (heart rate),[5],102 bpm
same,MSP (left-ventricular mean systolic pressure),[5],131 mmHg
same,RT (relaxation time),[5],92 ± 3 ms
same,"S/D (systolic to diastolic ratio, SET/RT + FT)",[5],0.36
same,SET (systolic ejection time),[5],156 ± 7 ms
same,Tau (left-ventricular relaxation time-constant),[5],30.8 ± 2.8 ms
same,Vmax (estimated maximal velocity of myocardial contractile-element shortening),[5],34.9 ± 1.6 s⁻¹
same,dP/dtmax (peak rate of LV pressure change during systole),[5],"2,401 mmHg/s"
same,dP/dtmin (peak rate of LV pressure change during diastole),[5],"−2,167 mmHg/s"

# From patent US10543215B2, “Combination therapy of cardiac myosin activator and sinus node if current inhibitor” (AMGEN INC., priority 2015, dated 2020)
